Results taken from US20200085734A1, “PHARMACEUTICAL DOSAGE FORMS CONTAINING TASK-I AND TASK-3 CHANNEL INHIBITORS, AND THE USE OF SAME IN BREATHING DISORDER THERAPY” (priority 2016, published 2020).
Marks after values point to notes of the source that are not given here.

Test system: collapsibility of the upper airways
Assay: Animal model of obstructive sleep apnoea in the pig (collapse of the upper airways under negative pressure after nasal administration)
Type: in vivo, German Landrace pigs
Description: The effects of the formulations according to the invention of the inhibitors of TASK-1 and/or TASK-3 channels on the activation threshold of the genioglossus muscle by negative pressure and the collapsibility of the upper airways were investigated in a pig model for obstructive sleep apnoea. Using negative pressure, it is possible to induce collapse and thus obstruction of the upper airways in anaesthetized, spontaneously breathing pigs [Wirth et al., Sleep 36, 699-708 (2013)]. German Landrace pigs were used for the model. Since the nasal axis is in an almost vertical position in humans in a horizontal sleeping position, the pigs in the experiments were fixed in a sitting position (70 degrees), wherein the nose pointed upwards. After nasal administration, the formulation therefore flowed downwards over all regions of the upper airways. The pigs were anaesthetized and tracheotomized. One cannula each was inserted into the rostral and the caudal part of the trachea. Using a T connector, the rostral cannula was connected on the one hand to a device generating negative pressure and on the other hand to the caudal cannula. Using a T connector, the caudal cannula was connected to the rostral cannula and to a tube which allowed spontaneous breathing circumventing the upper airways. By appropriate closing and opening of the tubes it was thus possible for the pig to change from normal nasal breathing to breathing via the caudal cannula during the time when the upper airways were isolated and were connected to the device for generating negative pressure. The muscle activity of the Musculus genioglossus was recorded by electromyogram (EMG). At certain points in time, the collapsibility of the upper airways was tested by having the pig breathe via the caudal cannula and applying negative pressures of −50, −100 and −150 mbar (corresponding to −50, −100 and −150 cm water column (cm H2O)) to the upper airways. This caused the upper airways to collapse, which manifested itself in an interruption of the airflow and a pressure drop in the tube system. This test was conducted prior to administration of the test substance and at certain intervals after administration of the test substance. An appropriately effective test substance could prevent this collapse of the airways in the inspiratory phase. After changeover from nasal breathing to breathing via the caudal cannula, it was not possible to measure any EMG activity of the Musculus genioglossus in the anaesthetized pig. As a further test, the negative pressure at which EMG activity restarted was then determined. This threshold value was, if a test substance was effective, shifted to more positive values. The test was likewise conducted prior to the administration of the test substance and at certain intervals after the administration of the test substance. The test substance was administered by the nasal route. The results shown in the tables which follow were conducted with the compounds listed in Table 1 as Example 1, Example 3 and Example 4. Unless stated otherwise, the data were measured at a negative pressure of −100 mbar (corresponding to −100 cm water column (cm H2O)) on the upper airways. The active ingredients listed in Table 1 as Example 1, Example 3 and Example 4 were dissolved in the various formulations listed in Table 2 below and administered in an amount of 0 μg, 3 μg, 10 μg, 30 μg or 100 μg per pig. The active ingredient formulation or the pure vehicle was each administered with a pipette at a volume of 400 μl in each nostril. The duration of action in this pig model is defined as the time [min] in which a collapse of the upper airways was not observed in any animal, as a mean value of the specified number of animals. A duration of action specified as “>” X min signifies that the experiment was terminated at X min and up to this point a collapse of the upper airways was still not observed in any animal

Question: What does the source list for `O=C(C1CCCC1)N1CCN(Cc2c(-c3ccc(Br)cc3)nc3ccccn23)CC1` [Example 1, (4-{[2-(4-bromophenyl)imidazo[1,2-a]pyridin-3-yl]methyl}piperazin-1-yl)(cyclopentyl)methanone]?
Answer: Duration of action, mean value (Formulation 1 (0% PEG400), 10 μg nasal, reduced pressure -50 mbar): 150 min; Duration of action, mean value (Formulation 1 (0% PEG400), 10 μg nasal, reduced pressure -100 mbar): 120 min; Duration of action, mean value (Formulation 3 (20% w/v PEG400), 10 μg nasal, reduced pressure -50 mbar): >210 min; Duration of action, mean value (Formulation 3 (20% w/v PEG400), 10 μg nasal, reduced pressure -100 mbar): 180 min

Question: Which “Duration of action, mean value” (Formulation 1 (phosphate buffer pH 7/polysorbate 80 90/10, 0% PEG400), 3 μg nasal per pig, -100 mbar) does the source give for `COc1cccc(C(=O)N2CCN(Cc3c(-c4ccc(Cl)cc4)nc4ccccn34)CC2)n1` [Example 3, (4-{[2-(4-chlorophenyl)imidazo[1,2-a]pyridin-3-yl]methyl}piperazin-1-yl)(6-methoxypyridin-2-yl)methanone] here?
Answer: 150 min

Question: And the “Duration of action, mean value” (Formulation 1 (phosphate buffer pH 7/polysorbate 80 90/10, 0% PEG400), 30 μg nasal per pig, -100 mbar)?
Answer: 180* min

Question: What about the “Duration of action, mean value” (Formulation 2 (100% w/v PEG400), 3 μg nasal, -100 mbar) of the same compound?
Answer: >240 min

Question: And the “Duration of action, mean value” (Formulation 3 (phosphate buffer pH 7/polysorbate 80/PEG400 70/10/20), 3 μg nasal per pig, -100 mbar)?
Answer: 180 min

Question: What about the “Duration of action, mean value” (Formulation 3 (phosphate buffer pH 7/polysorbate 80/PEG400 70/10/20), 30 μg nasal per pig, -100 mbar) of the same compound?
Answer: 300 min

Question: And the “Duration of action, mean value” (Formulation 4 (5% w/v PEG400, 10% polysorbate 80, 85% phosphate buffer pH 7), 3 μg nasal, -100 mbar)?
Answer: 180 min

Question: And the “Duration of action, mean value” (Formulation 5 (2.5% w/v PEG400, 10% polysorbate 80, 87.5% phosphate buffer pH 7), 3 μg nasal, -100 mbar)?
Answer: 150 min

Question: What about the “Duration of action, mean value” (Formulation 6 (20% w/v PEG400, 2.5% w/v glycerol 85%, 10% polysorbate 80, 67.5% phosphate buffer pH 7), 3 μg nasal, -100 mbar) of the same compound?
Answer: 240 min

Question: What about the “Duration of action, mean value” (Formulation 7 (20% w/v propylene glycol, 10% polysorbate 80, 70% phosphate buffer pH 7), 30 μg nasal, -100 mbar) of the same compound?
Answer: 180 min

Question: What about the “Duration of action, mean value” (Formulation 9 (1.25% w/v Na-CMC, 10% polysorbate 80, 88.75% phosphate buffer pH 7, no PEG), 3 μg nasal, -100 mbar) of the same compound?
Answer: 120 min

Question: How did the “Duration of action, mean value” (Formulation 1 (0% PEG400), 100 μg nasal, reduced pressure -50 mbar) turn out when `O=C(c1ccccc1F)N1CCN(Cc2c(-c3ccc(Br)cc3)nc3ccccn23)CC1` [Example 4, (4-{[2-(4-bromophenyl)imidazo[1,2-a]pyridin-3-yl]methyl}piperazin-1-yl)(2-fluorophenyl)methanone] was run?
Answer: 180 min

Question: What about the “Duration of action, mean value” (Formulation 1 (0% PEG400), 100 μg nasal, reduced pressure -100 mbar) of the same compound?
Answer: 180 min

Question: And the “Duration of action, mean value” (Formulation 3 (20% w/v PEG400), 100 μg nasal, reduced pressure -50 mbar)?
Answer: >210 min

Question: And the “Duration of action, mean value” (Formulation 3 (20% w/v PEG400), 100 μg nasal, reduced pressure -100 mbar)?
Answer: 180 min
